Here are results for 24 compounds from patent US11136313B2, “Compounds, compositions, and methods for modulating CFTR” (Proteostasis Therapeutics, Inc., priority 2015, dated 2021).

The target of the assay is T1, ΔF508-CFTR (Homo sapiens, UniProt P13569, DEL508-508).
T1 construct: Primary lung epithelial cells homozygous for the Cystic Fibrosis-causing ΔF508 mutation were differentiated for a minimum of 4 weeks; endogenous in cells; host or cells: primary lung epithelial cells (hBE) homozygous for ΔF508, differentiated at an air-liquid interface
The assay is described as follows: hBE equivalent current (Ieq) assay: AUC of equivalent chloride current after forskolin/VX-770 in primary lung epithelial cells homozygous for ΔF508. It counts as cell-based. To be noted: relative to CFTR amplifier (Compound A)+VX-809 (3 uM), compound at 10 uM and Compound A at 3 uM, 24 h treatment. An outline of the steps:
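ΔF508/ΔF508 primary human bronchial epithelia, differentiated ≥4 weeks at air-liquid interface, treated basolaterally with compound for 24 h at 37 °C. Transepithelial voltage and conductance by 24-channel current clamp at 36 °C: benzamil, then forskolin plus VX-770 for 27 min, then bumetanide; AUC of equivalent chloride current over vehicle.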

T1 sequence (P13569 with tags, fused parts or gaps DEL508-508): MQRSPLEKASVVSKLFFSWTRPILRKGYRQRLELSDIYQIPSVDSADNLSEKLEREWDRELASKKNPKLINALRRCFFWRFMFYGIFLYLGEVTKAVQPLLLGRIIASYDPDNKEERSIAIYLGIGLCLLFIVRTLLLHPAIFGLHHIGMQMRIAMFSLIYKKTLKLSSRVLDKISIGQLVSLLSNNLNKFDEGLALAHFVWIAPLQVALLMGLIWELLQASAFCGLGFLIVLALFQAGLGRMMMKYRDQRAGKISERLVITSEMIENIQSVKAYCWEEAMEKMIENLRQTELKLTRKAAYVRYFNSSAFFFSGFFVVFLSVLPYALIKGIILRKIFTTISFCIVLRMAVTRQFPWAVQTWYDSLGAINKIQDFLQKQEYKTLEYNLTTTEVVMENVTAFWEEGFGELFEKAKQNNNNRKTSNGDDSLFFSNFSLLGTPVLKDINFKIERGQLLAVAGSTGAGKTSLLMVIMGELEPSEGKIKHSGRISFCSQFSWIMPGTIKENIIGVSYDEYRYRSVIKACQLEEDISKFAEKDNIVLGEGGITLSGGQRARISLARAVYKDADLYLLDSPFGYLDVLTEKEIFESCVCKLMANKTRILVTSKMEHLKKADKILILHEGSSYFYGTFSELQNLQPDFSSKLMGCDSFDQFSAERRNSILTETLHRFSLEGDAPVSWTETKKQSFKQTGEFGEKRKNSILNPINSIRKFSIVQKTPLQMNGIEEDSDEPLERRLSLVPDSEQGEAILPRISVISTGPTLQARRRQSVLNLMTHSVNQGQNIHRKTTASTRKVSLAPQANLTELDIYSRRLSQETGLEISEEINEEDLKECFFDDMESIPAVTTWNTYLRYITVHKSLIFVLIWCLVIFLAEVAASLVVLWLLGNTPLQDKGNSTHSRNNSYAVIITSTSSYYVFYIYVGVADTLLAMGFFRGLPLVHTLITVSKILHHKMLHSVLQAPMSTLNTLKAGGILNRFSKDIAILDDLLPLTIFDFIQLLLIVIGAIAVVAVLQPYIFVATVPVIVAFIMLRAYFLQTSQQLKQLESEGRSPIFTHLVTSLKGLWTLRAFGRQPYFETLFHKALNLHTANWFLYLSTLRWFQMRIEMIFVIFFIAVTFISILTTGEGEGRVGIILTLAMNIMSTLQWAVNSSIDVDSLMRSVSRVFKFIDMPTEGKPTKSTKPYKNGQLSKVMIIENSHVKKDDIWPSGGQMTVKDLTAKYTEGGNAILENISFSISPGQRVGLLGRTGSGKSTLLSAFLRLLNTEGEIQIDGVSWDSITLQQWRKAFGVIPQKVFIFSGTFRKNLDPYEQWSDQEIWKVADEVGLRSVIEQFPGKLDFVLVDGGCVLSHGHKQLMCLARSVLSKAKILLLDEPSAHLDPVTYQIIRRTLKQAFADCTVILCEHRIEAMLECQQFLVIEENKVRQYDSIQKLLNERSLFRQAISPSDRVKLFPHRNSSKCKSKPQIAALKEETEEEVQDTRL

Take `COC[C@H](Oc1ccc(C)c2nc(-c3sc4ccccc4c3C)cc(C(=O)[O-])c12)c1ccccc1.[Na+]` [Compound 308]: the Activity result is “++ (activity>50% of CFTR amplifier+VX-809 (3 uM) with compound at 10 uM and Compound A at 3 uM)”.
With `CCc1c(-c2cc(C(=O)O)c3c(C)ccc(C)c3n2)oc2ccccc12` [Compound 32, 2-(3-Ethyl-1-benzofuran-2-yl)-5,8-dimethylquinoline-4-carboxylic acid], the Activity result was “++ (activity>50% of CFTR amplifier+VX-809 (3 uM) with compound at 10 uM and Compound A at 3 uM)”.
The same measure for `Cc1cc(C)c2nc(-c3oc4ccccc4c3C)cc(C(=O)O)c2c1` [Compound 9, 6,8-dimethyl-2-(3-methyl-1-benzofuran-2-yl)quinoline-4-carboxylic acid]: “++ (activity>50% of CFTR amplifier+VX-809 (3 uM) with compound at 10 uM and Compound A at 3 uM)”; for `Cc1cc(C)c2nc(-c3oc4ccccc4c3C)cc(CO)c2c1` [Compound 29, [6,8-Dimethyl-2-(3-methyl-1-benzofuran-2-yl)quinolin-4-yl]methanol]: “+ (activity<50% of an CFTR amplifier (Compound A)+VX-809 (3 uM) with compound at 10 uM and Compound A at 3 uM)”.
In the case of `Cc1c(-c2cc(C(=O)[O-])c3c(O[C@H](CO)c4ccccc4)ccc(C)c3n2)sc2ccccc12.[Na+]` [Compound 307], the Activity entry was “++ (activity>50% of CFTR amplifier+VX-809 (3 uM) with compound at 10 uM and Compound A at 3 uM)”.
Take `Cc1c(-c2cc(C(=O)[O-])c3c(OC4CC(C)C4)ccc(C)c3n2)sc2ccccc12.[Na+]` (stereo not drawn) [Compound 277, Sodium 8-Methyl-2-(3-methyl-1-benzothiophen-2-yl)-5-(3-methylcyclobutoxy)quinoline-4-carboxylate]: the Activity entry is “++ (activity>50% of CFTR amplifier+VX-809 (3 uM) with compound at 10 uM and Compound A at 3 uM)”.
Regarding `Cc1c(-c2cc(C(=O)O)c3c(OC4CCCCC4)ccc(C)c3n2)sc2ccccc12` [Compound 134, 5-(Cyclohexyloxy)-8-methyl-2-(3-methyl-1-benzothiophen-2-yl)quinoline-4-carboxylic acid], the Activity entry was “++ (activity>50% of CFTR amplifier+VX-809 (3 uM) with compound at 10 uM and Compound A at 3 uM)”.
As for `Cc1ccc(O[C@@H](C)c2ccccc2)c2c(C(=O)[O-])cc(-c3cc4ccccn4n3)nc12.[Na+]` [Compound 209], the Activity result was “+ (activity<50% of an CFTR amplifier (Compound A)+VX-809 (3 uM) with compound at 10 uM and Compound A at 3 uM)”.
In the case of `COCC[C@@H](Oc1ccc(C)c2nc(-c3sc4ccccc4c3C)cc(C(=O)[O-])c12)c1ccccc1.[Na+]` [Compound 313], the Activity result was “++ (activity>50% of CFTR amplifier+VX-809 (3 uM) with compound at 10 uM and Compound A at 3 uM)”.
Take `Cc1c(-c2cc(C(=O)[O-])c3c(O[C@H](C)c4ccccc4)ccc(C)c3n2)oc2ccccc12.[Na+]` [Compound 212]: the Activity entry was “++ (activity>50% of CFTR amplifier+VX-809 (3 uM) with compound at 10 uM and Compound A at 3 uM)”.
Regarding `Cc1c(-c2cc(C(=O)O)c3c(OCCc4ccccc4)ccc(C)c3n2)oc2ccccc12` [Compound 73, 8-methyl-2-(3-methyl-1-benzofuran-2-yl)-5-(2-phenylethoxy)quinoline-4-carboxylic acid], the Activity result is “++ (activity>50% of CFTR amplifier+VX-809 (3 uM) with compound at 10 uM and Compound A at 3 uM)”.
To `Cc1c(-c2cc(-c3noc(O)n3)c3c(OC(C)c4ccccc4)ccc(C)c3n2)oc2ccccc12` (stereo not drawn) [Compound 361] belongs “++ (activity>50% of CFTR amplifier+VX-809 (3 uM) with compound at 10 uM and Compound A at 3 uM)”.
For `Cc1c(-c2cc(C(=O)O)c3cc(C#N)cc(C)c3n2)oc2ccccc12` [Compound 22, 6-Cyano-8-methyl-2-(3-methyl-1-benzofuran-2-yl)quinoline-4-carboxylic Acid], the Activity entry was “+ (activity<50% of an CFTR amplifier (Compound A)+VX-809 (3 uM) with compound at 10 uM and Compound A at 3 uM)”.
As for `Cc1c(-c2cc(C(=O)[O-])c3c(O[C@H](C)c4ccc(C5COC5)cc4)ccc(C)c3n2)oc2ccccc12.[Na+]` [Compound 285, Sodium 8-Methyl-2-(3-methyl-1-benzofuran-2-yl)-5-[(1R)-1-[4-(oxetan-3-yl)phenyl]ethoxy]quinoline-4-carboxylate], the Activity result was “++ (activity>50% of CFTR amplifier+VX-809 (3 uM) with compound at 10 uM and Compound A at 3 uM)”.
Take `CCc1ccc(OCc2ccc(C)cc2)c2c(C(=O)O)cc(-c3csc4ccccc34)nc12` [Compound 189]: the Activity result was “++ (activity>50% of CFTR amplifier+VX-809 (3 uM) with compound at 10 uM and Compound A at 3 uM)”.
On to `Cc1c(-c2cc(C(=O)[O-])c3c(O[C@@H]4C[C@H]5CC[C@@H](C4)O5)ccc(C)c3n2)sc2ccccc12.[Na+]` [Compound 352], for which the Activity entry is “++ (activity>50% of CFTR amplifier+VX-809 (3 uM) with compound at 10 uM and Compound A at 3 uM)”.
Turning to `Cc1c(-c2cc(C(=O)[O-])c3c(O[C@@H]4C[C@H](C)C[C@H](C)C4)ccc(C)c3n2)sc2ccccc12.[Na+]` [Compound 315], the Activity result is “++ (activity>50% of CFTR amplifier+VX-809 (3 uM) with compound at 10 uM and Compound A at 3 uM)”.
For `CCc1ccc(OCc2cccc(-c3cccnc3)c2)c2c(C(=O)O)cc(-c3csc4ccccc34)nc12` [Compound 194], the Activity result is “+ (activity<50% of an CFTR amplifier (Compound A)+VX-809 (3 uM) with compound at 10 uM and Compound A at 3 uM)”.
Turning to `Cc1oc2ccccc2c1-c1cc(C(=O)O)c2c(OCc3ccccc3)ccc(C)c2n1` [Compound 35, 5-(Benzyloxy)-8-methyl-2-(2-methyl-1-benzofuran-3-yl)quinoline-4-carboxylic acid], the Activity entry was “++ (activity>50% of CFTR amplifier+VX-809 (3 uM) with compound at 10 uM and Compound A at 3 uM)”.
In the case of `Cc1c(-c2cc(C(=O)[O-])c3c(O[C@H](C)C4CCOCC4)ccc(C)c3n2)sc2ccccc12.[Na+]` [Compound 330], the Activity entry was “++ (activity>50% of CFTR amplifier+VX-809 (3 uM) with compound at 10 uM and Compound A at 3 uM)”.
The same measure for `CCc1ccc(O[C@@H]2CCC[C@H](C)C2)c2c(C(=O)O)cc(-c3csc4ccccc34)nc12` [Compound 182, 2-(Benzo[b]thiophen-3-yl)-8-ethyl-5-(((1R,3S)-3-methylcyclohexyl)oxy)quinoline-4-carboxylic Acid]: “++ (activity>50% of CFTR amplifier+VX-809 (3 uM) with compound at 10 uM and Compound A at 3 uM)”; for `CCc1ccc(OCc2ccc(S(C)(=O)=O)cc2)c2c(C(=O)O)cc(-c3oc4ccccc4c3C)nc12` [Compound 145, 8-Ethyl-5-[(4-methanesulfonylphenyl)methoxy]-2-(3-methyl-1-benzofuran-2-yl)quinoline-4-carboxylic acid]: “++ (activity>50% of CFTR amplifier+VX-809 (3 uM) with compound at 10 uM and Compound A at 3 uM)”; for `Cc1c(-c2cc(C(=O)[O-])c3c(O[C@H](C)c4ccc(S(N)(=O)=O)cc4)ccc(C)c3n2)oc2ccccc12.[Na+]` [Compound 237, Sodium 8-Methyl-2-(3-methyl-1-benzofuran-2-yl)-5-[(1R)-1-(4-sulfamoylphenyl)ethoxy]quinoline-4-carboxylate]: “+ (activity<50% of an CFTR amplifier (Compound A)+VX-809 (3 uM) with compound at 10 uM and Compound A at 3 uM)”.
For the compound `Cc1c(-c2cc(C(=O)[O-])c3c(OC4CC5(COC5)C4)ccc(C)c3n2)sc2ccccc12.[Na+]` [Compound 370], the Activity entry is “++ (activity>50% of CFTR amplifier+VX-809 (3 uM) with compound at 10 uM and Compound A at 3 uM)”.
